Entries after “also recorded” stand apart in the source; their conditions may differ. Values belong to the compound of their own block, whether it stands above or below them.
How the values were obtained:
HT29 cancer cells = assay: Combination of JAC-B2 with another drug, cell survival by Pico Green, BLISS/HSA plot analyses; assay type: cell-based; conditions: combined with Cobimetinib, 5 days, FIG. 7O
Description: (§1) We analyzed cell survival using Pico Green and determined the combinational effects through BLISS/HSA plot analyses.

ASPC1 cancer cells = assay: as above; assay type: cell-based; conditions: combined with PDDX04, 5 days, FIG. 7P
Description: as §1

MIA-PaCa2 cancer cells = assay: Combination of JAC-B2 or JAC-R2 with another drug, cell survival by Pico Green, BLISS/HSA plot analyses; assay type: cell-based
Method: as §1
MIA-PaCa2 pancreatic cancer cells were purchased from the American Type Culture Collection (ATCC, Manassas, VA, USA) and grown in normal culture media (DMEM media, 10% FBS, 1% L-glutamine, 1% Penicillin-Streptomycin) at normal conditions (37° C., 5% CO2). Cells were trypsinized and plated at 1 thousand cells per well and in 96-well plates. […] Cell viability was assessed using pico-green dsDNA measurement and IC50S were calculated using GraphPad® (GraphPad Software, San Diego, CA, USA) by employing normalized nonlinear regression models. A summary of the combined efficacy of a compound of Formula I and an additional therapeutic agent is show in Table 2.

[1] = Solubility of glycerol-containing formulations (post vortexing, 30 min and overnight at 18° C.); assay type: physicochemical; conditions: glycerol-containing formulation, compound 2 mg/mL; for solubility at 30 min / solubility: 18 °C; for solubility at 30 min: after 30 minutes incubation at 18° C.; for solubility: overnight incubation at 18° C.; for solubility at 30 s: post vortexing
Method: Tables 3A, 3B, and 3C describe solubility experiments conducted with the indicated compounds under the listed conditions. Vortexing was conducted using a Denville Vortexer 59 (Denville Scientific Inc.), at maximum speed for 30 seconds. As used herein, the term overnight refers to a period lasting at least about 12-24 hours.

[2] = Solubility of BSA-containing formulations (post vortexing, 30 min and overnight at 18° C.); assay type: physicochemical; conditions: BSA-containing formulation, aqueous with cosolvent or surfactant or cyclodextrin, compound 2 mg/mL; for solubility at 30 min / solubility: 18 °C; for solubility at 30 min: after 30 minutes incubation at 18° C.; for solubility: overnight incubation at 18° C.; for solubility at 30 s: post vortexing
Method: Vortexing was conducted using a Denville Vortexer 59 (Denville Scientific Inc.), at maximum speed for 30 seconds. As used herein, the term overnight refers to a period lasting at least about 12-24 hours.

[3] = combined with Azacitidine, 5 days, MIA-PaCa2, FIG. 7J (JAC-B2), FIG. 7L (JAC-R2)
[4] = combined with Decitabine, 5 days, MIA-PaCa2, FIG. 7I (JAC-B2), FIG. 7K (JAC-R2)
[5] = combined with Paclitaxel, 5 days, FIG. 7F (JAC-B2), FIG. 7M (JAC-R2)

SMILES: CCN1/C(=C/C=C/C=C/c2sc3ccccc3[n+]2CC)Sc2ccccc21 [JAC-B2, Dithiazanine Iodide]
Effect of combination (HT29 cancer cells): Synergistic
Effect of combination (ASPC1 cancer cells): Synergistic
Effect of combination (MIA-PaCa2 cancer cells; combined with 5-Fluorouracil, 5 days, FIG. 7N): Synergistic
Effect of combination (MIA-PaCa2 cancer cells; combined with Abemaciclib, 5 days, MIA-PaCa2, FIG. 7H): Synergistic
Effect of combination (MIA-PaCa2 cancer cells; combined with Adavosertib, 5 days, MIA-PaCa2, FIG. 7R): Synergistic
Effect of combination (MIA-PaCa2 cancer cells; [3]): Synergistic
Effect of combination (MIA-PaCa2 cancer cells; combined with Colchicine, 5 days, MIA-PaCa2, FIG. 7Q): Synergistic
Effect of combination (MIA-PaCa2 cancer cells; [4]): Synergistic
Effect of combination (MIA-PaCa2 cancer cells; combined with Everolimus, 5 days, MIA-PaCa2, FIG. 7E): Additive
Effect of combination (MIA-PaCa2 cancer cells; combined with Gemcitabine, 5 days, MIA-PaCa2, FIG. 7A): antagonistic response; also recorded: Antagonistic/Additive
Effect of combination (MIA-PaCa2 cancer cells; combined with Hydralazine, no figure): Antagonistic/Additive
Effect of combination (MIA-PaCa2 cancer cells; combined with Irinotecan, 5 days, MIA-PaCa2, FIG. 7C): Additive
Effect of combination (MIA-PaCa2 cancer cells; combined with Metformin, no figure): Additive
Effect of combination (MIA-PaCa2 cancer cells; combined with Methotrexate, 5 days, MIA-PaCa2, FIG. 7B): Additive
Effect of combination (MIA-PaCa2 cancer cells; combined with Olaparib, 5 days, MIA-PaCa2, FIG. 7D): antagonistic response; also recorded: Antagonistic/Additive
Effect of combination (MIA-PaCa2 cancer cells; combined with Oxaliplatin, 5 days, MIA-PaCa2, FIG. 7G): Synergistic
Effect of combination (MIA-PaCa2 cancer cells; [5]): Synergistic
Effect of combination (MIA-PaCa2 cancer cells; combined with VE-821, 5 days, MIA-PaCa2, FIG. 7S): Synergistic

solubility at 30 min ([1]; aqueous with cosolvent or surfactant or cyclodextrin, 10% glycerol, read-out: Solubility of glycerol-containing formulations after 30 min incubation at 18° C., 10%): < 2000 µg/mL
solubility ([1]; aqueous with cosolvent or surfactant or cyclodextrin, 10% glycerol, read-out: Solubility of glycerol-containing formulations after overnight incubation at 18° C., 10%): < 2000 µg/mL
solubility at 30 min ([1]; aqueous with cosolvent or surfactant or cyclodextrin, 20% glycerol, read-out: Solubility of glycerol-containing formulations after 30 min incubation at 18° C., 20%): < 2000 µg/mL
solubility ([1]; aqueous with cosolvent or surfactant or cyclodextrin, 20% glycerol, read-out: Solubility of glycerol-containing formulations after overnight incubation at 18° C., 20%): < 2000 µg/mL
solubility at 30 min ([1]; aqueous with cosolvent or surfactant or cyclodextrin, 30% glycerol, read-out: Solubility of glycerol-containing formulations after 30 min incubation at 18° C., 30%): < 2000 µg/mL
solubility ([1]; aqueous with cosolvent or surfactant or cyclodextrin, 30% glycerol, read-out: Solubility of glycerol-containing formulations after overnight incubation at 18° C., 30%): < 2000 µg/mL
solubility at 30 min ([1]; aqueous with cosolvent or surfactant or cyclodextrin, 40% glycerol, read-out: Solubility of glycerol-containing formulations after 30 min incubation at 18° C., 40%): < 2000 µg/mL
solubility ([1]; aqueous with cosolvent or surfactant or cyclodextrin, 40% glycerol, read-out: Solubility of glycerol-containing formulations after overnight incubation at 18° C., 40%): < 2000 µg/mL
solubility at 30 min ([1]; aqueous with cosolvent or surfactant or cyclodextrin, 50% glycerol, read-out: Solubility of glycerol-containing formulations after 30 min incubation at 18° C., 50%): < 2000 µg/mL
solubility ([1]; aqueous with cosolvent or surfactant or cyclodextrin, 50% glycerol, read-out: Solubility of glycerol-containing formulations after overnight incubation at 18° C., 50%): < 2000 µg/mL
solubility at 30 min ([1]; 0% glycerol, read-out: Solubility of glycerol-containing formulations after 30 min incubation at 18° C., 0%): < 2000 µg/mL
solubility ([1]; 0% glycerol, read-out: Solubility of glycerol-containing formulations after overnight incubation at 18° C., 0%): < 2000 µg/mL
solubility at 30 s ([1]; aqueous with cosolvent or surfactant or cyclodextrin, 10% glycerol, read-out: Solubility of glycerol-containing formulations post vortexing, 10%): < 2000 µg/mL
solubility at 30 s ([1]; aqueous with cosolvent or surfactant or cyclodextrin, 20% glycerol, read-out: Solubility of glycerol-containing formulations post vortexing, 20%): < 2000 µg/mL
solubility at 30 s ([1]; aqueous with cosolvent or surfactant or cyclodextrin, 30% glycerol, read-out: Solubility of glycerol-containing formulations post vortexing, 30%): < 2000 µg/mL
solubility at 30 s ([1]; aqueous with cosolvent or surfactant or cyclodextrin, 40% glycerol, read-out: Solubility of glycerol-containing formulations post vortexing, 40%): < 2000 µg/mL
solubility at 30 s ([1]; aqueous with cosolvent or surfactant or cyclodextrin, 50% glycerol, read-out: Solubility of glycerol-containing formulations post vortexing, 50%): < 2000 µg/mL
solubility at 30 s ([1]; 0% glycerol, read-out: Solubility of glycerol-containing formulations post vortexing, 0%): < 2000 µg/mL
solubility at 30 min ([2]; BSA 40 mg/mL, read-out: Solubility of BSA-containing formulations after 30 min incubation at 18° C., 40 mg/mL): < 2000 µg/mL
solubility ([2]; BSA 40 mg/mL, read-out: Solubility of BSA-containing formulations after overnight incubation at 18° C., 40 mg/mL): < 2000 µg/mL
solubility at 30 min ([2]; BSA 60 mg/mL, read-out: Solubility of BSA-containing formulations after 30 min incubation at 18° C., 60 mg/mL): < 2000 µg/mL
solubility ([2]; BSA 60 mg/mL, read-out: Solubility of BSA-containing formulations after overnight incubation at 18° C., 60 mg/mL): < 2000 µg/mL
solubility at 30 min ([2]; BSA 80 mg/mL, read-out: Solubility of BSA-containing formulations after 30 min incubation at 18° C., 80 mg/mL): < 2000 µg/mL
solubility ([2]; BSA 80 mg/mL, read-out: Solubility of BSA-containing formulations after overnight incubation at 18° C., 80 mg/mL): < 2000 µg/mL
solubility at 30 min ([2]; BSA 100 mg/mL, read-out: Solubility of BSA-containing formulations after 30 min incubation at 18° C., 100 mg/mL): < 2000 µg/mL
solubility ([2]; BSA 100 mg/mL, read-out: Solubility of BSA-containing formulations after overnight incubation at 18° C., 100 mg/mL): < 2000 µg/mL
solubility at 30 s ([2]; BSA 40 mg/mL, read-out: Solubility of BSA-containing formulations post vortexing, 40 mg/mL): < 2000 µg/mL
solubility at 30 s ([2]; BSA 60 mg/mL, read-out: Solubility of BSA-containing formulations post vortexing, 60 mg/mL): < 2000 µg/mL
solubility at 30 s ([2]; BSA 80 mg/mL, read-out: Solubility of BSA-containing formulations post vortexing, 80 mg/mL): < 2000 µg/mL
solubility at 30 s ([2]; BSA 100 mg/mL, read-out: Solubility of BSA-containing formulations post vortexing, 100 mg/mL): < 2000 µg/mL
SMILES: CCN1/C(=C/C(C)=C/c2sc3ccccc3[n+]2CC)Sc2ccccc21 [JAC-B2.5, 3,3′-Diethyl-9-methylthiacarbocyanine iodide]

SMILES: CCN1/C(=C/C=C/C=C/c2oc3ccccc3[n+]2CC)Oc2ccccc21 [JAC-R2, 3′,3′-Diethyloxadicarbocyanine iodide]
Effect of combination (MIA-PaCa2 cancer cells; [3]): Synergistic
Effect of combination (MIA-PaCa2 cancer cells; [4]): Synergistic
Effect of combination (MIA-PaCa2 cancer cells; [5]): Synergistic

Reference: patent US20230150960A1, “COMPOSITIONS AND METHODS OF USING CYANINE DYES TO TARGET CANCER AND MITOCHONDRIA” (Thomas Jefferson University, priority 2020, published 2023)
